Assay results as given in US8618119B2, “Fused cyanopyridines and the use thereof” (Bayer Intellectual Property GmbH, priority 2007, dated 2013).

What was measured:
Format in all cases: cell-based
[1] = target: T1, adenosine A2a receptor (Homo sapiens, UniProt P29274); assay: Indirect determination of adenosine agonism by way of gene expression (luciferase reporter), A2a cells; conditions: CHO cells stably transfected with A2a receptor cDNA; 50% of maximum stimulation
T1 construct: expressed in transfected cells; host or cells: CHO (Chinese Hamster Ovary)
Excerpt: (§1) B-1. Indirect Determination of the Adenosine Agonism by Way of Gene Expression
(§2) Cells of the CHO (Chinese Hamster Ovary) permanent line are transfected stably with the cDNA for the adenosine receptor subtypes A1, A2a and A2b. The adenosine A1 receptors are coupled to the adenylate cyclase by way of Gi proteins, while the adenosine A2a and A2b receptors are coupled by way of Gs proteins. In correspondence with this, the formation of cAMP in the cell is inhibited or stimulated, respectively. After that, expression of the luciferase is modulated by way of a cAMP-dependent promoter. The luciferase test is optimized, with the aim of high sensitivity and reproducibility, low variance and good suitability for implementation on a robot system, by varying several test parameters, such as cell density, duration of the growth phase and the test incubation, forskolin concentration and medium composition. The following test protocol is used for pharmacologically characterizing cells and for the robot-assisted substance screening:
(§3) The stock cultures are grown, at 37° C. and under 5% CO2, in DMEM/F12 medium containing 10% FCS (fetal calf serum) and in each case split 1:10 after 2-3 days. The test cultures are seeded in 384-well plates with 2000 cells per well and grown at 37° C. for approx. 48 hours. The medium is then replaced with a physiological sodium chloride solution (130 mM sodium chloride, 5 mM potassium chloride, 2 mM calcium chloride, 20 mM HEPES, 1 mM magnesium chloride hexahydrate, 5 mM sodium bicarbonate, pH 7.4). The substances to be tested, which are dissolved in DMSO, are pipetted into the test cultures (maximum final concentration of DMSO in the test mixture: 0.5%) in a dilution series of from 5×10^−11M to 3×10^−6M (final concentration). 10 minutes later, forskolin is added to the A1 cells and all the cultures are subsequently incubated at 37° C. for four hours. After that, 35 μl of a solution which is composed of 50% lysis reagent (30 mM disodium hydrogenphosphate, 10% glycerol, 3% TritonX100, 25 mM TrisHCl, 2 mM dithiotreitol (DTT), pH 7.8) and 50% luciferase substrate solution (2.5 mM ATP, 0.5 mM luciferin, 0.1 mM coenzyme A, 10 mM tricine, 1.35 mM magnesium sulfate, 15 mM DTT, pH 7.8) are added to the test cultures, which are shaken for approx. 1 minute and the luciferase activity is measured using a camera system. The EC50 values are determined, i.e., the concentrations at which 50% of the luciferase answer is inhibited in the case of the A1 cell, and, respectively, 50% of the maximum stimulation with the corresponding substance is achieved in the case of the A2b and A2a cells. […] Pharmacol., 357 (1998), 1-9).
(§4) Table 1 below lists the EC50 values of representative working examples for the receptor stimulation on adenosine A1, A2a and A2b receptor subtypes: […]

[2] = target: T2, adenosine A1 receptor (Homo sapiens, UniProt P30542); assay: Indirect determination of adenosine agonism by way of gene expression (luciferase reporter), A1 cells; conditions: CHO cells stably transfected with A1 receptor cDNA; 1 μM forskolin; 50% inhibition of luciferase answer
T2 construct: expressed in transfected cells; host or cells: CHO (Chinese Hamster Ovary)
T2 sequence (P30542 1-326): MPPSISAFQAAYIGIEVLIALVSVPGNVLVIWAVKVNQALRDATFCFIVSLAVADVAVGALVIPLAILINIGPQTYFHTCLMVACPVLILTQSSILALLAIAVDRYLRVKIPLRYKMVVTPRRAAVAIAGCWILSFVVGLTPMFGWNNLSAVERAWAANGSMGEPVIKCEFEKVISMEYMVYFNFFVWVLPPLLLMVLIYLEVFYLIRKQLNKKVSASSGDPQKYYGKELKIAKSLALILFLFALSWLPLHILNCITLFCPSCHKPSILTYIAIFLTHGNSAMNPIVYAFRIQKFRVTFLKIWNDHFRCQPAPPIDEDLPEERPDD
Excerpt: as §1, §2, §3, §4

[3] = target: T3, adenosine A2b receptor (Homo sapiens, UniProt P29275); assay: Indirect determination of adenosine agonism by way of gene expression (luciferase reporter), A2b cells; conditions: CHO cells stably transfected with A2b receptor cDNA; 50% of maximum stimulation
T3 construct: expressed in transfected cells; host or cells: CHO (Chinese Hamster Ovary)
T3 sequence (P29275 1-332): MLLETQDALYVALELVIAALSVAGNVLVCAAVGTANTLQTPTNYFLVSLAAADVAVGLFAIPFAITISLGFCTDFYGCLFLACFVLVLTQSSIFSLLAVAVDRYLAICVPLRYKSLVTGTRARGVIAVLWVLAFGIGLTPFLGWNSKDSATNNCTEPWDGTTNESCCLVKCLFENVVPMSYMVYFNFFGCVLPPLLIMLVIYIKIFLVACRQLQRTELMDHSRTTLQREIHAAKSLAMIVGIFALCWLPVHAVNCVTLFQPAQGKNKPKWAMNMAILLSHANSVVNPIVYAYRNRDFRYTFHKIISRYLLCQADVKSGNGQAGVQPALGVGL
Excerpt: as §1, §2, §3, §4

T1 sequence (P29274 whole entry): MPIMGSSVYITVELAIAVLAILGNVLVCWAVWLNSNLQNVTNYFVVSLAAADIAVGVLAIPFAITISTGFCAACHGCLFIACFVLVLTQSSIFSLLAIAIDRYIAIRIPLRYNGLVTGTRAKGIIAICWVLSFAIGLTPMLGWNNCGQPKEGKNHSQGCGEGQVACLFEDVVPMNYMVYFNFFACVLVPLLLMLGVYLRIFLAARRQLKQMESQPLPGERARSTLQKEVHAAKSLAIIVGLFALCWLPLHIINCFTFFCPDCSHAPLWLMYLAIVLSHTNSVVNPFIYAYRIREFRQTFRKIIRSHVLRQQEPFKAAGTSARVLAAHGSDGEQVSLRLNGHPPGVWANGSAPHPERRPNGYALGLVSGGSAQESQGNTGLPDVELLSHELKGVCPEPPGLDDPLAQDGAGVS

SMILES | EC50 [1] | EC50 [2] | EC50 [3]
Cc1nc2nc(SCc3csc(-c4ccc(Cl)cc4)n3)c(C#N)c(-c3ccc(OCCO)cc3)c2c(=O)[nH]1 [Example 10, 7-({[2-(4-Chlorophenyl)-1,3-thiazol-4-yl]methyl}thio)-5-[4-(2-hydroxyethoxy)phenyl]-2-methyl-4-oxo-3,4-dihydropyrido[2,3-d]pyrimidine-6-carbonitrile] | 1370 nM | 0.4 nM | 213 nM
N#Cc1c(SCc2csc(-c3ccc(Cl)cc3)n2)nc2c(c1-c1ccc(OCCO)cc1)C(=O)CCC2 [Example 2, 2-({[2-(4-Chlorophenyl)-1,3-thiazol-4-yl]methyl}thio)-4-[4-(2-hydroxyethoxy)phenyl]-5-oxo-5,6,7,8-tetrahydroquinoline-3-carbonitrile] | > 3000 nM | 7.9 nM | 207 nM
N#Cc1c(SCc2csc(-c3ccc(Cl)cc3)n2)nc2[nH]c(=O)[nH]c(=O)c2c1-c1ccc(OCCO)cc1 [Example 12, 7-({[2-(4-Chlorophenyl)-1,3-thiazol-4-yl]methyl}sulfanyl)-5-[4-(2-hydroxyethoxy)phenyl]-2,4-dioxo-1,2,3,4-tetrahydropyrido[2,3-d]pyrimidine-6-carbonitrile] | 2000 nM | 2 nM | 880 nM
COC(=O)c1ccc(-c2nc(CSc3nc4c(c(-c5ccccc5)c3C#N)CCC4)cs2)cc1 [Example 13, Methyl 4-(4-{[(3-cyano-4-phenyl-6,7-dihydro-5H-cyclopenta[b]pyridin-2-yl)sulfanyl]methyl}-1,3-thiazol-2-yl)benzoate] |  | 21 nM | 1250 nM

The remaining lines, values ahead:

EC50 [1] | EC50 [2] | EC50 [3] | SMILES
> 3000 nM | 2.6 nM | 66 nM | N#Cc1c(SCc2csc(-c3ccc(Cl)cc3)n2)nc2c(c1-c1ccc(OC[C@@H](O)CO)cc1)C(=O)CCC2 [Example 3, 2-({[2-(4-Chlorophenyl)-1,3-thiazol-4-yl]methyl}thio)-4-(4-{[(2S)-2,3-dihydroxypropyl]oxy}-phenyl)-5-oxo-5,6,7,8-tetrahydroquinoline-3-carbonitrile]
68 nM | < 0.04 nM | 38 nM | Cc1nc(N)c2c(-c3ccc(OCCO)cc3)c(C#N)c(SCc3csc(-c4ccc(Cl)cc4)n3)nc2n1 [Example 9, 4-Amino-7-({[2-(4-chlorophenyl)-1,3-thiazol-4-yl]methyl}sulfanyl)-5-[4-(2-hydroxyethoxy)phenyl]-2-methylpyrido[2,3-d]pyrimidine-6-carbonitrile]
